This note sets out measurements from ChEMBL document CHEMBL1129617, “Synthesis and antiretroviral evaluation of new alkoxy and aryloxy phosphate derivatives of 3'-azido-3'-deoxythymidine” (J Med Chem, 1996).

In test [1] the test system is CCRF-CEM. The experiment in a line: Concentration required to reduce 50% of the number of CEM/O cells in the HIV-2 infected cell cultures. The test is classed as functional, cell-based. As to conditions: Homo sapiens.
Another test relates to CEM-TK(+). Description: Concentration required to reduce 50% of the number of CEM/TK cells in the HIV-2 infected cell cultures. Type of test: functional, cell-based. As to conditions: Homo sapiens.
In test [2] the test system is CCRF-CEM. The experiment in a line: Concentration required to reduce 50% of the number of CEM/O cells in the mock infected cell cultures. The test is classed as functional. As to conditions: Homo sapiens.
In test [3] the test system is CCRF-CEM. Description: Concentration required to reduce 50% of the number of CEM/O cells in the HIV-1 infected cell cultures. Type of test: functional, cell-based. To be noted: Homo sapiens.
A short description of test [4]: Selectivity index in the HIV-1 infected cell cultures. Type of test: functional.

Bounds are passed on as bounds.

What is called EC50 is the concentration giving half of the maximal effect. The low end stands for greater potency, the high end for weaker potency. As a reminder, the CC50 is the concentration at which the toxic effect on the cells reaches its halfway point. A high value points to better tolerance by the cells. As for `CCCCCCCCCCCCO[C@H](C)COP(=O)(O)OCC1O[C@@H](n2cc(C)c(=O)[nH]c2=O)C[C@@H]1N=[N+]=[N-]` (single isomer, unassigned), the EC50 in the test on CCRF-CEM [1] was 500 nM; with CEM-TK(+) it was > 50000 nM; in the test with CCRF-CEM [3] it was 500 nM. The compound also had a CC50 in the test with CCRF-CEM [2] of 93000 nM. The SI in test [4] was found to be 186.
Turning to `CCCCCCCCCCCCO[C@@H](C)COP(=O)(O)OC[C@H]1O[C@@H](n2cc(C)c(=O)[nH]c2=O)C[C@@H]1N=[N+]=[N-]`, the EC50 is 350 nM with CCRF-CEM [1], > 50000 nM with CEM-TK(+) and 320 nM in the test with CCRF-CEM [3]. Also, it took 94500 nM to reach half-maximal cytotoxicity in the test with CCRF-CEM [2] (CC50). In test [4], this compound came in with an SI of 295.
The corresponding values for `Cc1cn(C2CC(N=[N+]=[N-])C(COP(=O)(O)OCCOc3ccccc3)O2)c(=O)[nH]c1=O` (stereo not drawn) are 18 nM, > 125000 nM, 20 nM, > 125000 nM and >6250.
In the case of `CCCCCCCCCCCCOC[C@@H](C)OP(=O)(O)OCC1OC(n2cc(C)c(=O)[nH]c2=O)CC1N=[N+]=[N-]` (stereo partly drawn), the concentration giving a half-maximal response (EC50) in the test on CCRF-CEM [1] is 2670 nM; in the test on CEM-TK(+), > 50000 nM; in the test with CCRF-CEM [3] it was 2170 nM. Moreover, the midpoint of cytotoxicity in the test with CCRF-CEM [2], the CC50, lay at 95900 nM. The compound further showed an SI in test [4] of 44.
The corresponding values for `CCCCCCCCCCCCOCCOP(=O)(O)OCC1OC(n2cc(C)c(=O)[nH]c2=O)CC1N=[N+]=[N-]` (stereo not drawn) are 133 nM, > 50000 nM, 115 nM, 76900 nM and 669.
The corresponding values for `Cc1cn(C2CC(N=[N+]=[N-])C(COP(=O)(O)OCCOc3ccc4ccccc4c3)O2)c(=O)[nH]c1=O` (stereo not drawn) are 20 nM, > 125000 nM, 15 nM, > 125000 nM and >8333.
As for `Cc1cn(C2CC(N=[N+]=[N-])C(COP(=O)(O)OCCOc3cccc4ccccc34)O2)c(=O)[nH]c1=O` (stereo not drawn), the results for the EC50 in the test with CCRF-CEM [1], in the test with CEM-TK(+) and with CCRF-CEM [3] were 28 nM, > 125000 nM and 13 nM, respectively. Besides, the CC50 in the test on CCRF-CEM [2] is > 125000 nM. For the same compound, the SI in test [4] was >9615.
On to `Cc1cn([C@H]2C[C@H](N=[N+]=[N-])[C@@H](CO)O2)c(=O)[nH]c1=O` [ZIDOVUDINE], for which the half-maximal effective concentration (EC50) in the test with CEM-TK(+) was > 100000 nM. For the same compound, the CC50 with CCRF-CEM [2] is > 100000 nM. The SI in test [4] is recorded as >16666.
`CCCCCCCCCCCCOC[C@H](C)OP(=O)(O)OCC1OC(n2cc(C)c(=O)[nH]c2=O)CC1N=[N+]=[N-]` (stereo partly drawn): the half-maximal effective concentration (EC50) was 260 nM with CCRF-CEM [1], > 50000 nM in the test with CEM-TK(+) and 200 nM in the test with CCRF-CEM [3]. It took 88000 nM to reach half-maximal cytotoxicity in the test on CCRF-CEM [2] (CC50). Also, the SI in test [4] turned out to be 440.
